Test results taken from article PMC6257762, “Isoquinolines from the Roots of Thalictrum flavum L. and Their Evaluation as Antiparasitic Compounds” (Molecules, 2010).
Values joined by “and” are separate entries in the source; they are usually repeats but may differ in a detail not shown here. Equal entries are not always repeated. Where two headings read alike, the source gives them in different places.

What was measured:
[1] = system: Plasmodium falciparum FcB1 Colombia; assay: In vitro P. falciparum culture antimalarial activity assay; format: cell-based
Protocol: 3.4. In vitro P. falciparum culture and activity assays
Antimalarial activity was evaluated on FcB1 Colombia strain of Plasmodium falciparum according to a previously described procedure.

MCR-5 cells = assay: Cytotoxicity towards MCR-5 (MRC5) cells; format: cell-based
Protocol: (§1) 3.3. Evaluations of cytotoxicity towards MCR-5 and KB cells
(§2) Cytotoxicities were evaluated at the ICSN-CNRS (Gif sur Yvette, France) on MRC5 and KB cells, in DMSO, at 10 and 1 µg/mL according to the procedure described by Moret et al..

Leishmania major = assay: In vitro leishmanicidal activity, promastigote susceptibility (Uptiblue micromethod); format: cell-based; settings: promastigotes, MHOM/Il/81/BNI, 96 h at 26 °C
Protocol: 3.5. In vitro leishmanicidal activity
Leishmania major (MHOM/Il/81/BNI) was cultivated at 26 °C in a Schneider’s insect medium (Sigma, St Quentin Fallavier, France) supplemented with 15% foetal bovine serum (FBS) (Sigma), penicillin (100 IU/mL) and streptomycin (50 µg/mL). Exponentially growing cells were maintained at 26 °C. Promastigote susceptibility testing was performed with the Uptiblue® micromethod previously described. Briefly, 100 µL of a […] promastigotes/mL suspension were placed into wells of a 96-well microplate (Nunc®). The cultures were exposed for 96 h at 26 °C to the antileishmanial drugs at the concentrations used above, except for meglumine antimoniate for which dilutions were 0.2, 2 and 20 mg·mL^-1. Four h before measurement, 10 µL of Uptiblue® were added. The fluorescence was measured at 590 nm with an excitation at 550 nm.

KB cells = assay: Cytotoxicity towards KB cells; format: cell-based
Protocol: as §1, §2

[2] = set-up: method as in PMID 17109902; settings: quaternary protoberberines, as expected; cited from earlier work
[3] = Plasmodium falciparum, FcB1 Colombia strain, read-out: Antimalarial IC50 Plasmodium falciparum FcB1 Colombia
[4] = Plasmodium falciparum, FCB1, read-out: Antimalarial IC50 Plasmodium falciparum FcB1 Colombia

Compound | IC50 [1, 3] | Cytotoxicity MCR-5 cells 10 µg/mL (MCR-5 cells; human, 10 µg/mL) | IC50 (Leishmania major; Leishmania major) | also measured
COc1cc2c(cc1OC)C(Cc1ccc(O)cc1)N(C)CC2 (single isomer, unassigned; (-)) [(-)-Armepavine 9, (-)-armepavine] | 3.6 µg/mL and 11.4 µM | 0 | – | –
COc1cc2c3c(c1OC)Oc1c(OC)c(OC)cc4c1C(Cc1ccc(O)c(c1)Oc1ccc(cc1)CC2N(C)CC3)NCC4 (single isomer, unassigned; (-)) [(-)-Northalfoetidine 5, (-)-northalfoetidine] | 2.8 µg/mL and 4.5 µM | 6 | 39 µg/mL and 63 µM | –
COc1ccc2cc1Oc1ccc(cc1)CC1c3cc(OC)c(OC)c(c3CCN1C)Oc1c(OC)c(OC)cc3c1C(C2)NCC3 (single isomer, unassigned; (-)) [(-)-Northalidasine 2, (-)-northalidasine] | 3.4 µg/mL and 5.2 µM | 0 | 27 µg/mL and 41 µM | –
COc1ccc2cc1Oc1ccc(cc1)CC1c3cc(OC)c(OC)c(c3CCN1C)Oc1c(O)c(OC)cc3c1C(C2)NCC3 (single isomer, unassigned; (-)) [(-)-Northalrugosidine 3, (-)-northalrugosidine] | 2.7 µg/mL and 4.3 µM | 77 | 30 µg/mL and 48 µM | Cytotoxicity MCR-5 cells 1 µg/mL (MCR-5 cells; human, 1 µg/mL): 0
COc1cc2c3c(c1OC)Oc1c(OC)c(OC)cc4c1C(Cc1ccc(O)c(c1)Oc1ccc(cc1)CC2N(C)CC3)N(C)CC4 (single isomer, unassigned; (-)) [(-)-Thalfoetidine 4, (-)-thalfoetidine] | 2.1 µg/mL and 3.3 µM | 62 | 17 µg/mL and 27 µM | Cytotoxicity MCR-5 cells 1 µg/mL (MCR-5 cells; human, 1 µg/mL): 0
COc1cc2c3c(c1O)Oc1c4c(cc(OC)c1OC)C(Cc1ccc(cc1)Oc1cc(ccc1O)CC3N(C)CC2)N(C)CC4 (single isomer, unassigned; (-)) [(-)-Thaligosidine 6, (-)-thaligosidine] | 1.2 µg/mL and 2 µM | 61 | 38 µg/mL and 61 µM | Cytotoxicity MCR-5 cells 1 µg/mL (MCR-5 cells; human, 1 µg/mL): 0
COc1cc2c(cc1OC)-c1c3c(c(OC)c4c1[C@H](C2)NCC4)OCO3 [(+)-O-Methylcassythine 7, (+)-O-methylcassythine] | 8.6 µM | 61 | – | IC50 [1, 4]: 3.1 mg/L; Cytotoxicity MCR-5 cells 1 µg/mL (MCR-5 cells; human, 1 µg/mL): 4; Cytotoxicity KB cells 10 µg/mL (KB cells): 49
COc1cc2c(cc1OC)-c1c(O)c(OC)c(OC)c3c1[C@H](C2)N(C)CC3 [(+)-Preocoteine 1, (+)-preocoteine] | 1.3 µM | 20 | > 100 µg/mL and > 100 µM | IC50 [1, 4]: 0.5 mg/L; Cytotoxicity KB cells 10 µg/mL (KB cells): 23
COc1ccc2cc3[n+](cc2c1OC)CCc1cc2c(cc1-3)OCO2 [Berberine 11, berberine] | 0.4 µg/mL and 900 nM | – | 13 µg/mL and 35 µM | Cytotoxicity (in words) [2]: cytotoxic
CCN(CC)CCCC(C)Nc1ccnc2cc(Cl)ccc12 (stereo not shown) [Chloroquine, reference compound] | – | – | – | IC50 [1, 4]: 0.06 µg/mL and 100 nM
N=C(N)c1ccc(OCCCCCOc2ccc(C(=N)N)cc2)cc1 [Pentamidine, reference compound] | – | – | 28 µg/mL and 82 µM | –
COc1cc2cc3[n+](cc2cc1OC)CCc1cc2c(cc1-3)OCO2 [Pseudoberberine 12, pseudoberberine] | 0.5 µg/mL and 1.3 µM | – | 3.5 µg/mL and 9 µM | Cytotoxicity (in words) [2]: cytotoxic
COc1cc(CCN(C)C)c2ccc3cc4c(c5c(=O)oc1c2c35)OCO4 [Thaliglucinone 10, thaliglucinone] | 6.7 µM | – | 63 µg/mL and 173 µM | IC50 [1, 4]: 2.4 mg/L; Cytotoxicity MCR-5 cells 1 µg/mL (MCR-5 cells; MCR-5 (MRC5) cells, compound at 1 µg/mL in DMSO): 21; Cytotoxicity MCR-5 cells 10 µg/mL (MCR-5 cells; MCR-5 (MRC5) cells, compound at 10 µg/mL in DMSO): 79
(+)-thalicberine [(+)-Thalicberine 8] | – | – | – | Antimalarial IC50 Plasmodium falciparum FcB1 Colombia ([1]; FcB1 Colombia strain): 2.5 mg/L; IC50 ([1]; FcB1 Colombia strain, read-out: Antimalarial IC50 Plasmodium falciparum FcB1 Colombia): 4.2 µM; Cytotoxicity MCR-5 cells 10 µg/mL (MCR-5 cells): 29; IC50 (Leishmania major): 90 µM; Leishmanicidal IC50 Leishmania major (Leishmania major): 55 mg/L; Cytotoxicity KB cells 10 µg/mL (KB cells): 43
